Reference: patent US10584115B2, “Substituted pyridine and pyrazine BMI-1 inhibitors” (PTC Therapeutics, Inc., priority 2013, dated 2020)

The compounds below were run on Bmi-1 protein (assay: Sandwich ELISA Assay (Bmi-1 protein level in HT-1080 cells after compound treatment)). Conditions: Table 1, Bmi-1 sandwich ELISA, read-out: ELISA EC50 value for Bmi-1 protein.
Type: cell-based
Protocol: Cell Seeding and Compound Treatment (Day 1):
HT-1080 cells were seeded at 8000 cells/well (50 μL) in 96-well tissue culture plates. After the cells became adherent (3-4 hours), 2× diluted stocks of test compounds in 50 μL DMEM containing 1% DMSO (final DMSO concentration was 0.5%) were added and the plates were incubated at 37° C. under 5% CO2 for 40-48 hours.
ELISA Plate First Antibody Preparation (Day 2):
The First Antibody (Millipore Mouse, monoclonal to mouse Bmi-1, clone F6, catalog #05-637) diluted to […] in PBS was added (100 μL) to each well of a Nunc MaxiSorp 96-well ELISA plate. The plate was covered with a plate seal and allowed to stand overnight.
Cell Lysate Preparation (Day 3):
Fresh Lysis buffer (1×) was prepared on the day of the assay as follows: 1 mM EDTA, 150 mM NaCl, 0.5% Triton-X 100, 10 mM NaF, 20 mM B-Glycerophosphate, 1 mM DTT (in PBS, pH 7.2-7.4) and HALT protease inhibitor cocktail (lx) (Pierce #78410).
A standard curve was prepared at the following Bmi-1 concentrations: 8000, 4000, 2000, 1000, 500, 250, 125 and 0 pg/mL. The Bmi-1 Recombinant Protein Standard (Novus Biologicals PCGF4 Recombinant Protein (P01), catalog # H00000648-P01) used to prepare the standard curve was stored at −80° C. On first thaw, the Recombinant Protein Standard was diluted to 10 μg/L in Blocking Buffer (1% BSA in PBS; BSA: Fisher Scientific Catalog #1600-100). Aliquots were taken and refrozen at −80° C. The aliquots may be kept at 4° C. and reused after first thaw, but only within 1-2 weeks. The Recombinant Protein Standard contains a GST-fusion tag that appears at approximately 70 Kda on Western Blot.
The prepared ELISA plate was washed 3× with Wash Buffer (0.05% Tween-20 in PBS). The final wash was removed from the plate and the plate was blotted dry. Blocking Buffer (300 μL) (1% BSA in PBS) was added to each well. The plate was covered with a plate seal and incubated at room temperature for 1 hour. The blocked plate was washed 3× with Wash Buffer, then the final wash was removed and the plate was blotted dry. The previously prepared samples and standards were added ([…]) and the plate was covered with a plate seal and incubated at 4° C. overnight.
The prepared ELISA plate was removed from incubation and allowed to stand at room temperature for 30 minutes, then washed and blotted dry. The Second Antibody (Cell Signaling Rabbit anti-Bmi-1, Cat #2830) diluted to 1:600 in Blocking Buffer was added (100 μL) to each well, except as needed for background control wells. The plate was covered with a plate seal and incubated for 1.5 hrs at room temperature.
The ELISA plate was washed and blotted dry as previously described. The Third Antibody (Cell Signaling HRP conjugated anti-rabbit IgG (CellSignaling, Cat #:7074) diluted to 1:300 in Blocking Buffer was added (100 μL) to each well, except as needed for background control wells. The plate was incubated for 1 hr at room temperature.
The plate was washed and blotted dry, then a previously prepared TMB substrate (TMB substrate kit, Pierce catalog #34021) (prepared by mixing kit reagents 1:1) (100 μL) was added per well. The plate was incubated for 20-30 minutes at room temperature in the dark, then Stop Solution (2 M sulfuric acid in water) (50 μL) was added per well. The plates were read at OD450 (experimental) and OD570 (reference).

Compound	EC50 [nM]
Cc1nc2ccccc2n1-c1cccc(Nc2ccc(OC(F)F)cc2)n1 [Cpd 35, N-[4-(difluoromethoxy)phenyl]-6-(2-methyl-1H-benzimidazol-1-yl)pyridin-2-amine]	10 to 100
Cc1nc2ccccc2n1-c1cccc(Nc2ccc(OC(F)(F)F)cc2)n1 [Cpd 36, 6-(2-methyl-1H-benzimidazol-1-yl)-N-[4-(trifluoromethoxy)phenyl]pyridin-2-amine]	100 to 3000
Cc1nc2ccccc2n1-c1cccc(Nc2ccc(C(F)(F)F)cc2)n1 [Cpd 37, 6-(2-methyl-1H-benzimidazol-1-yl)-N-[4-(trifluoromethyl)phenyl]pyridin-2-amine]	10 to 100
FC(F)(F)Oc1ccc(Nc2cccc(-n3c(C(F)(F)F)nc4ccccc43)n2)cc1 [Cpd 39, N-[4-(trifluoromethoxy)phenyl]-6-[2-(trifluoromethyl)-1H-benzimidazol-1-yl]pyridin-2-amine]	100 to 3000
FC(F)(F)c1ccc(Nc2cccc(-n3c(C(F)(F)F)nc4ccccc43)n2)cc1 [Cpd 40, 6-[2-(trifluoromethyl)-1H-benzimidazol-1-yl]-N-[4-(trifluoromethyl)phenyl]pyridin-2-amine]	100 to 3000
N#Cc1ccc(Nc2cccc(-c3c(C(F)(F)F)nc4ccccn34)n2)cc1 [Cpd 50, 4-({6-[2-(trifluoromethyl)imidazo[1,2-a]pyridin-3-yl]pyridin-2-yl}amino)benzonitrile]	10 to 100

Results, then the compound that gave them:

EC50 [nM]	Compound
1 to 10	Fc1cc(Nc2cncc(-c3c(C(F)(F)F)nc4ccccn34)n2)ccc1Cl [Cpd 25, N-(4-chloro-3-fluorophenyl)-6-[2-(trifluoromethyl)imidazo[1,2-a]pyridin-3-yl]pyrazin-2-amine]
100 to 3000	Fc1ccc(Nc2cncc(-c3c(C(F)(F)F)nc4ccccn34)n2)cc1F [Cpd 26, N-(3,4-difluorophenyl)-6-[2-(trifluoromethyl)imidazo[1,2-a]pyridin-3-yl]pyrazin-2-amine]
1 to 10	FC(F)Oc1ccc(Nc2cccc(-c3c(C(F)(F)F)nc4ccccn34)n2)cc1 [Cpd 27, N-[4-(difluoromethoxy)phenyl]-6-[2-(trifluoromethyl)imidazo[1,2-a]pyridin-3-yl]pyridin-2-amine]
10 to 100	FC(F)(F)c1nc2ccccn2c1-c1cncc(Nc2ccc(Cl)c(Cl)c2)n1 [Cpd 29, N-(3,4-dichlorophenyl)-6-[2-(trifluoromethyl)imidazo[1,2-a]pyridin-3-yl]pyrazin-2-amine]
1 to 10	Fc1cc(Nc2cncc(-c3c(C(F)(F)F)nc4ccccn34)n2)ccc1Br [Cpd 30, N-(4-bromo-3-fluorophenyl)-6-[2-(trifluoromethyl)imidazo[1,2-a]pyridin-3-yl]pyrazin-2-amine]
10 to 100	FC(F)(F)c1nc2ccccn2c1-c1cncc(Nc2ccc(Br)c(Cl)c2)n1 [Cpd 31, N-(4-bromo-3-chlorophenyl)-6-[2-(trifluoromethyl)imidazo[1,2-a]pyridin-3-yl]pyrazin-2-amine]
10 to 100	FC(F)Oc1ccc(Nc2cccc(-n3c(C(F)(F)F)nc4ccccc43)n2)cc1 [Cpd 38, N-[4-(difluoromethoxy)phenyl]-6-[2-(trifluoromethyl)-1H-benzimidazol-1-yl]pyridin-2-amine]
10 to 100	COc1ccc2nc(C(F)(F)F)c(-c3cncc(Nc4ccc(OC(F)(F)F)cc4)n3)n2c1 [Cpd 45, 6-[6-methoxy-2-(trifluoromethyl)imidazo[1,2-a]pyridin-3-yl]-N-[4-(trifluoromethoxy)phenyl]pyrazin-2-amine]
10 to 100	COc1ccc2nc(C(F)(F)F)c(-c3cncc(Nc4ccc(C(F)(F)F)cc4)n3)n2c1 [Cpd 46, 6-[6-methoxy-2-(trifluoromethyl)imidazo[1,2-a]pyridin-3-yl]-N-[4-(trifluoromethyl)phenyl]pyrazin-2-amine]
1 to 10	COc1ccc(Nc2cncc(-c3c(C(F)(F)F)nc4ccc(OC)cn34)n2)cc1 [Cpd 47, N-(4-methoxyphenyl)-6-[6-methoxy-2-(trifluoromethyl)imidazo[1,2-a]pyridin-3-yl]pyrazin-2-amine]
1 to 10	COc1ccc2nc(C(F)(F)F)c(-c3cncc(Nc4ccc(OC(F)F)cc4)n3)n2c1 [Cpd 48, N-[4-(difluoromethoxy)phenyl]-6-[6-methoxy-2-(trifluoromethyl)imidazo[1,2-a]pyridin-3-yl]pyrazin-2-amine]
100 to 3000	COc1ccc2nc(C(F)(F)F)c(-c3cncc(Nc4ccc(C#N)cc4)n3)n2c1 [Cpd 49, 4-({6-[6-methoxy-2-(trifluoromethyl)imidazo[1,2-a]pyridin-3-yl]pyrazin-2-yl}amino)benzonitrile]
10 to 100	Fc1ccc2nc(C(F)(F)F)c(-c3cncc(Nc4ccc(OC(F)(F)F)cc4)n3)n2c1 [Cpd 55, 6-[6-fluoro-2-(trifluoromethyl)imidazo[1,2-a]pyridin-3-yl]-N-[4-(trifluoromethoxy)phenyl]pyrazin-2-amine]
1 to 10	Fc1ccc2nc(C(F)(F)F)c(-c3cncc(Nc4ccc(OC(F)F)cc4)n3)n2c1 [Cpd 56, N-[4-(difluoromethoxy)phenyl]-6-[6-fluoro-2-(trifluoromethyl)imidazo[1,2-a]pyridin-3-yl]pyrazin-2-amine]
< 1	COc1ccc(Nc2cncc(-c3c(C(F)(F)F)nc4ccc(F)cn34)n2)cc1 [Cpd 57, 6-[6-fluoro-2-(trifluoromethyl)imidazo[1,2-a]pyridin-3-yl]-N-(4-methoxyphenyl)pyrazin-2-amine]
1 to 10	Fc1ccc2nc(C(F)(F)F)c(-c3cncc(Nc4ccc(C(F)(F)F)cc4)n3)n2c1 [Cpd 58, 6-[6-fluoro-2-(trifluoromethyl)imidazo[1,2-a]pyridin-3-yl]-N-[4-(trifluoromethyl)phenyl]pyrazin-2-amine]
100 to 3000	O=[N+]([O-])c1ccc(Nc2cncc(-c3c(C(F)(F)F)nc4ccccn34)n2)cc1 [Cpd 59, N-(4-nitrophenyl)-6-[2-(trifluoromethyl)imidazo[1,2-a]pyridin-3-yl]pyrazin-2-amine]
10 to 100	Nc1ccc(Nc2cncc(-c3c(C(F)(F)F)nc4ccccn34)n2)cc1 [Cpd 60, N-{6-[2-(trifluoromethyl)imidazo[1,2-a]pyridin-3-yl]pyrazin-2-yl}benzene-1,4-diamine]

Same assay, conditions: read-out: ELISA EC50 value for Bmi-1 protein, Table 1, Bmi-1 sandwich ELISA

Compound	EC50 [nM]
COc1ccc(Nc2cccc(-n3c(C)nc4ccccc43)n2)cc1 [Cpd 32, N-(4-methoxyphenyl)-6-(2-methyl-1H-benzimidazol-1-yl)pyridin-2-amine]	1 to 10
COc1ccc(Nc2cccc(-n3c(C(F)(F)F)nc4ccccc43)n2)cc1 [Cpd 33, N-(4-methoxyphenyl)-6-[2-(trifluoromethyl)-1H-benzimidazol-1-yl]pyridin-2-amine]	10 to 100
COc1ccc(Nc2ccc(C#N)c(-c3c(C(F)(F)F)nc4ccccn34)n2)cc1 [Cpd 34, 6-[(4-methoxyphenyl)amino]-2-[2-(trifluoromethyl)imidazo[1,2-a]pyridin-3-yl]pyridine-3-carbonitrile]	100 to 3000
COc1ccc(Nc2cc(C#N)cc(-c3c(C(F)(F)F)nc4ccccn34)n2)cc1 [Cpd 42, 2-[(4-methoxyphenyl)amino]-6-[2-(trifluoromethyl)imidazo[1,2-a]pyridin-3-yl]pyridine-4-carbonitrile]	1 to 10
FC(F)(F)c1ccc(Nc2cccc(-c3c(C(F)(F)F)nc4ncccn34)n2)cc1 [Cpd 64, 6-[2-(trifluoromethyl)imidazo[1,2-a]pyrimidin-3-yl]-N-[4-(trifluoromethyl)phenyl]pyridin-2-amine]	10 to 100
FC(F)(F)c1ccc(Nc2cncc(-c3c(C(F)(F)F)nc4ncccn34)n2)cc1 [Cpd 67, 6-[2-(trifluoromethyl)imidazo[1,2-a]pyrimidin-3-yl]-N-[4-(trifluoromethyl)phenyl]pyrazin-2-amine]	10 to 100
